Data set [1] in a line: Intracolonic delivery of heparin with delivery agent compound; heparin activity by activated partial thromboplastin time (APTT). The format is in vivo, Male Sprague-Dawley rats. To be noted: rats, intracolonic (IC); compound 50 mg/kg, heparin 25 mg/kg, volume 1 ml/kg; maximum of time-point means of five rats; baseline about 20 sec. How it is done: Oral gavage (PO) and/or intracolonic (IC) dosing solutions containing a delivery agent compound and heparin sodium USP in 25% aqueous propylene glycol were prepared. Either the sodium salt of the compound was used or the free acid was converted to the sodium salt with one equivalent of sodium hydroxide. Typically, delivery agent compound and heparin (about 166-182 IU/mg) were mixed by vortex as dry powders. This dry mixture was dissolved in 25% v/v aqueous propylene glycol, vortexed and placed in a sonicator (about 37 °C). The pH was adjusted to about 7 (6.5 to 8.5) with aqueous sodium hydroxide (2N). The dosing solution was sonicated to produce a clear solution. The final volume was adjusted to about 3.0 ml. The final delivery agent compound dose, heparin dose and volume dose amounts are listed below in Table 2.
The typical dosing and sampling protocols were as follows. […]
Citrated blood samples were collected by cardiac puncture following the administration of ketamine (88 mg/kg), typically at 0.25, 0.5, 1.0 and 1.5 hours after administration. Heparin activity was determined by utilizing the activated partial thromboplastin time (APTT) according to the method of Henry, J.B., Clinical Diagnosis and Management by Laboratory Methods, Philadelphia, PA, W.B. Saunders (1979). […]

Details of data set [2]: species or system Male Sprague-Dawley rats. To be noted: rat, in vivo, po, 100 mg/kg. Here is the method: Oral gavage (PO) and/or intracolonic (IC) dosing solutions of delivery agent compound and human parathyroid hormone residues 1-34 (PTH) in water were prepared. A solution of the compound was made either with the sodium salt of the compound or by converting the free acid to its sodium salt. Typically, a solution of the compound was prepared in water and stirred, adding one equivalent of sodium hydroxide (1.0 N) when making the sodium salt. The final dosing solutions were prepared by mixing the compound solution with a PTH stock solution (typically having a concentration of 5 mg PTH/ml) and diluting to the desired volume (usually 3.0 ml). The final compound, PTH and volume dose amounts are listed below in Table 4.
The typical dosing and sampling protocols were as follows. Male Sprague-Dawley rats weighing between 200-250g were fasted for 24 hours and administered ketamine (44 mg/kg) and chlorpromazine (1.5 mg/kg) 15 minutes prior to dosing. A dosing group of five rats was administered one of the dosing solutions. For oral gavage (PO), an 11cm Rusch 8 French catheter was adapted to a 1 ml syringe with a pipette tip. The syringe was filled with dosing solution by drawing the solution through the catheter, which was then wiped dry. The catheter was placed down the esophagus leaving 1 cm of tubing past the rat's incisors. Solution was administered by pressing the syringe plunger. For intracolonic (IC) dosing, a 7.5 cm Rusch catheter tube (French 8 or 6) was adapted to a syringe with an Eppendorf pipette tip. The syringe was filled with the dosing solution by drawing the solution through the catheter tube. The catheter tube was wiped dry. K-Y jelly was applied to the tip, avoiding contact with the eye of the tube, and the tube was inserted into the colon through the anus until the tube was no longer visible. The solution was injected by pressing the syringe plunger, and the tube was removed.
Blood samples were collected serially from the tail artery, typically 0, 15, 30, 45, 60 and 90 minutes after oral administration and 0, 10, 20, 30, 60 and 90 minutes after IC administration. Serum PTH concentrations were quantified by a PTH radioimmunoassay kit (Kit # RIK 6101 from Peninsula Laboratories, Inc., San Carlos, CA). Previous studies indicated baseline values of about zero. Results from the five rats in each group were averaged for each time point. The maximum is reported below in Table 4.

Details of data set [3]: species or system Male Sprague-Dawley rats. To be noted: rat, in vivo, po, 150 mg/kg. Here is the method: Oral dosing (PO) compositions of delivery agent compound and salmon calcitonin (sCT) in water were prepared. Typically, 450 mg of compound was added to 2.0 ml of water. Either the sodium salt of the compound was used or the free acid was converted to the sodium salt by stirring the resultant solution and adding one equivalent of sodium hydroxide (1.0 N) and diluting with water. The solution was vortexed, then heated (about 37°C) and sonicated. The pH was adjusted to about 7 (6.5 to 8.5) with sodium hydroxide or hydrochloric acid. 90 µg sCT from a stock solution was added to the solution. Water was then added to bring the total volume to about 3.0 ml (varies depending on solubility of the delivery agent compound) and vortexed. The final delivery agent compound dose, sCT dose and volume dose amounts are listed below in Table 1.
The typical dosing and sampling protocols were as follows. Male Sprague-Dawley rats weighing between 200-250g were fasted for 24 hours and administered ketamine (44 mg/kg) and chlorpromazine (1.5 mg/kg) 15 minutes prior to dosing. A dosing group of five rats was administered one of the dosing solutions. For oral dosing, an 11 cm Rusch 8 French catheter was adapted to a 1 ml syringe with a pipette tip. The syringe was filled with dosing solution by drawing the solution through the catheter, which was then wiped dry. The catheter was placed down the esophagus leaving 1 cm of tubing past the incisors. Solution was administered by pressing the syringe plunger.
Blood samples were collected serially from the tail artery, typically at 0, 10, 20, 30, 60 and 90 minutes after administration. Serum sCT was determined by testing with an EIA kit (Kit # EIAS-6003 from Peninsula Laboratories, Inc., San Carlos, CA). Numbers were adjusted according to baseline values obtained at 0 minutes. The limit of the assay is 80 pg/ml. The results from the five rats in each dosing group were averaged for each time point. The maximum is reported below in Table 1.

SMILES strings stand for the structures.

On to `O=C(O)CCCCCCc1nnc(-c2ccccc2O)o1` [Compound 2], for which, in data set [1], the “Mean Peak APTT (sec) ± SD” value was 52.8 ± 31.9 s. Also, the “Mean Peak Serum [PTH] (pg/ml) ± SD” value in data set [2] turned out to be 498.55 ± 237.83 pg/mL.

`O=C(O)CCCCc1nnc(-c2ccccc2O)o1` [Compound 3]: in data set [2], the AUC was determined as 2717.51 and the “Mean Peak Serum [PTH] (pg/ml) ± SD” value is 57.88 pg/mL.

For `O=C(O)CCCCCCCc1nnc(-c2ccccc2O)o1` [Compound 4], in data set [2], the AUC is reported as 6852.12 and the “Mean Peak Serum [PTH] (pg/ml) ± SD” value stood at 330.74 ± 410.57 pg/mL.

`O=C(O)CCCCCCc1nnc(-c2cc(Cl)ccc2O)o1` [Compound 5]: the “Mean Peak Serum Set (pg/ml ± SD)(SE)” value in data set [3] was 393 ± 431 (193) pg/ml. Besides, in data set [2], the AUC came out at 509.20 and the “Mean Peak Serum [PTH] (pg/ml) ± SD” value turned out to be 22.91 pg/mL.

As for `O=C(O)CCCCCCc1nnc(-c2cc(Cl)cc(Cl)c2O)o1` [Compound 6], in data set [3], the “Mean Peak Serum Set (pg/ml ± SD)(SE)” value is reported as 306 ± 339 (152) pg/ml. Moreover, in data set [2], the AUC was 716.96 and the “Mean Peak Serum [PTH] (pg/ml) ± SD” value was determined as 14.44 pg/mL.

As for `Cc1ccc(-c2nnc(CCCCCCC(=O)O)o2)c(O)c1` [Compound 7], in data set [2], the AUC stood at 4790.10 and the “Mean Peak Serum [PTH] (pg/ml) ± SD” value came out at 138.9 ± 118.46 pg/mL.

With `O=C(O)CCCCCCc1nnc(-c2ccccc2)o1` [Compound 10], the “Mean Peak Serum Set (pg/ml ± SD)(SE)” value in data set [3] came to 37 ± 55 pg/mL.

The values are drawn from EP1156787B1, “OXADIAZOLE COMPOUNDS AND COMPOSITIONS FOR DELIVERING ACTIVE AGENTS” (priority 1999, dated 2000).
